Measurements as given in patent US20210101899A1, “INHIBITORS OF MUTANT ISOCITRATE DEHYDROGENASES AND COMPOSITIONS AND METHODS THEREOF” (IsoCure Biosciences Inc., priority 2016, published 2021).

Tests used:
Format in all cases: biochemical
IDH1 (R132H) = IDH1 (R132H) (Homo sapiens, UniProt O75874, R132H); experiment: IDH enzyme assay, NADPH depletion by diaphorase/resazurin coupled detection; details: pre-incubated with enzyme for 1 h at room temperature; 1500 μM a-Ketoglutarate+15 μM NADPH; 10-dose, 3-fold dilution from 10 μM; read-out: Compound IC50 (nM) IDH1 (R132H)
Chain of IDH1 (R132H) (O75874 whole entry R132H): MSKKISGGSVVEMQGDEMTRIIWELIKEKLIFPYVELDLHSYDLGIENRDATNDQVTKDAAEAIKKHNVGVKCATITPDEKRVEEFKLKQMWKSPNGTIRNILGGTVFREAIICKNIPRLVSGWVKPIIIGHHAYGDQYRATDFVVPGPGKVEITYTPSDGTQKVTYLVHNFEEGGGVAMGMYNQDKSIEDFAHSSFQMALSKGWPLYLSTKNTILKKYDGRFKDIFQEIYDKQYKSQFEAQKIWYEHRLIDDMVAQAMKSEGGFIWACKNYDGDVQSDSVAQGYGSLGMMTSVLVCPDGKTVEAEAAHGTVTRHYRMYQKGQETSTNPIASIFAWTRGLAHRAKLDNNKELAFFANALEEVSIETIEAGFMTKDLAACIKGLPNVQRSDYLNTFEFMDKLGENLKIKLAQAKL
Experimental: (§1) Compounds were tested against 3 enzymes, as provided below. Compounds were tested in 10-dose IC50 mode with 3-fold serial dilution at a starting concentration of 10 μM. Control Compounds were tested in 10-dose IC50 mode with 3-fold serial dilution starting at 1 mM or 10 mM. Assay Format: The production or depletion of NADPH by IDH enzymes was measured by diaphorase/resazurin coupled detection. Fluorescence measurement: Ex/Em=535/590 by EnVision. Compounds were pre-incubated with enzyme for 1 h at room temperature. Standard substrate: 1500 μM a-Ketoglutarate+15 μM NADPH for IDH1 (R132H). 500 μM a-Ketoglutarate+15 μM NADPH for IDH1 (R132C). 65 μM Isocitrate+50 μM NADP for IDH1.

IDH1 (R132C) = IDH1 (R132C) (Homo sapiens, UniProt O75874, R132C); experiment: as above; details: pre-incubated with enzyme for 1 h at room temperature; 500 μM a-Ketoglutarate+15 μM NADPH; 10-dose, 3-fold dilution from 10 μM; read-out: Compound IC50 (nM) IDH1 (R132C)
Chain of IDH1 (R132C) (O75874 whole entry R132C): as the sequence (O75874 whole entry R132H) above, with H132C counted along it
Experimental: as §1

IDH1 = IDH1 (Homo sapiens, UniProt O75874); experiment: IDH enzyme assay, NADPH production by diaphorase/resazurin coupled detection; details: IDH1 WT; pre-incubated with enzyme for 1 h at room temperature; 65 μM Isocitrate+50 μM NADP; 10-dose, 3-fold dilution from 10 μM; read-out: Compound IC50 (nM) IDH1
Chain of IDH1 (O75874 whole entry): as the sequence (O75874 whole entry R132H) above, with H132R counted along it
Experimental: as §1

Row | IC50 (IDH1 (R132H)) [nM] | IC50 (IDH1 (R132C)) [nM] | IC50 (IDH1) [nM] | SMILES
1 | 18 | 35 | > 10000 | C=CC(=O)Nc1cc(Cn2nc(C(=O)Nc3cccc(C)c3)c3c2C(C)CN(C(=O)c2ccc[nH]2)C3)ccc1F (stereo not shown) [ISO-2-1, 1-(3-acrylamido-4-fluorobenzyl)-7-methyl-5-(1H-pyrrole-2-carbonyl)-N-(m-tolyl)-4,5,6,7-tetrahydro-1H-pyrazolo[4,3-c]pyridine-3-carboxamide]
2 | 33 | 152 | > 10000 | C=CC(=O)NCc1cc(Cn2nc(C(=O)Nc3cccc(C)c3)c3c2C(C)CN(C(=O)c2ccc[nH]2)C3)ccc1F (stereo not shown) [ISO-2-2, 1-(3-(acrylamidomethyl)-4-fluorobenzyl)-7-methyl-5-(1H-pyrrole-2-carbonyl)-N-(m-tolyl)-4,5,6,7-tetrahydro-1H-pyrazolo[4,3-c]pyridine-3-carboxamide]
3 | 34 | 77 | ≥ 10000 | C=CC(=O)Nc1cc(Cn2nc(C(=O)Nc3cccc([C@H](C)O)c3)c3c2C(C)CN(C(=O)c2ccc[nH]2)C3)ccc1F (stereo partly drawn) [ISO-2-3, 1-(3-acrylamido-4-fluorobenzyl)-N-(3-((S)-1-hydroxyethyl)phenyl)-7-methyl-5-(1H-pyrrole-2-carbonyl)-4,5,6,7-tetrahydro-1H-pyrazolo[4,3-c]pyridine-3-carboxamide]
4 | 49 | 121 | > 10000 | C=CC(=O)Nc1cccc(NC(=O)c2nn(Cc3ccc(F)cc3)c3c2CN(C(=O)c2ccc[nH]2)CC3C)c1 (stereo not shown) [ISO-2-4, N-(3-acrylamidophenyl)-1-(4-fluorobenzyl)-7-methyl-5-(1H-pyrrole-2-carbonyl)-4,5,6,7-tetrahydro-1H-pyrazolo[4,3-c]pyridine-3-carboxamide]
5 | 3 | 2 | > 10000 | CC1CN(C(=O)c2ccc[nH]2)Cc2c(C(=O)Nc3cccc(NC(=O)CCl)c3)nn(Cc3ccc(F)cc3)c21 (stereo not shown) [ISO-2-5, N-(3-(2-chloroacetamido)phenyl)-1-(4-fluorobenzyl)-7-methyl-5-(1H-pyrrole-2-carbonyl)-4,5,6,7-tetrahydro-1H-pyrazolo [4,3-c]pyridine-3-carboxamide]
6 | > 10000 | > 10000 | > 10000 | C=CC(=O)N1CCCC(NC(=O)c2nn(Cc3ccc(F)cc3)c3c2CN(C(=O)c2ccc[nH]2)CC3C)C1 (stereo not shown) [ISO-2-6, N-(1-acryloylpiperidin-3-yl)-1-(4-fluorobenzyl)-7-methyl-5-(1H-pyrrole-2-carbonyl)-4,5,6,7-tetrahydro-1H-pyrazolo[4,3-c]pyridine-3-carboxamide]
7 | 153 | 247 | > 10000 | C=CC(=O)Nc1cc(F)ccc1Cn1nc(C(=O)Nc2cccc([C@H](C)O)c2)c2c1C(C)CN(C(=O)c1ccc[nH]1)C2 (stereo partly drawn) [ISO-2-7, 1-(2-acrylamido-4-fluorobenzyl)-N-(3-((S)-1-hydroxyethyl)phenyl)-7-methyl-5-(1H-pyrrole-2-carbonyl)-4,5,6,7-tetrahydro-1H-pyrazolo[4,3-c]pyridine-3-carboxamide]
8 | 52 | 154 | > 10000 | C=CC(=O)NCc1cc(F)ccc1Cn1nc(C(=O)Nc2cccc([C@H](C)O)c2)c2c1C(C)CN(C(=O)c1ccc[nH]1)C2 (stereo partly drawn) [ISO-2-8, 1-(2-(acrylamidomethyl)-4-fluorobenzyl)-N-(3-((S)-1-hydroxyethyl)phenyl)-7-methyl-5-(1H-pyrrole-2-carbonyl)-4,5,6,7-tetrahydro-1H-pyrazolo[4,3-c]pyridine-3-carboxamide]
9 | > 10000 | > 10000 | > 10000 | C=CC(=O)N1CCC(NC(=O)c2nn(Cc3ccc(F)cc3)c3c2CN(C(=O)c2ccc[nH]2)CC3C)C1 (stereo not shown) [ISO-2-9, N-(1-acryloylpyrrolidin-3-yl)-1-(4-fluorobenzyl)-7-methyl-5-(1H-pyrrole-2-carbonyl)-4,5,6,7-tetrahydro-1H-pyrazolo[4,3-c]pyridine-3-carboxamide]
10 | > 10000 | 9500 | > 10000 | C=CC(=O)N1CC(NC(=O)c2nn(Cc3ccc(F)cc3)c3c2CN(C(=O)c2ccc[nH]2)CC3C)C1 (stereo not shown) [ISO-2-10, N-(1-acryloylazetidin-3-yl)-1-(4-fluorobenzyl)-7-methyl-5-(1H-pyrrole-2-carbonyl)-4,5,6,7-tetrahydro-1H-pyrazolo[4,3-c]pyridine-3-carboxamide]
11 | 5 | 35 | 4780 | C=CC(=O)Nc1ccc(NC(=O)c2nn(Cc3ccc(F)cc3)c3c2CN(C(=O)c2ccc[nH]2)CC3C)s1 (stereo not shown) [ISO-2-19, N-(5-acrylamidothiophen-2-yl)-1-(4-fluorobenzyl)-7-methyl-5-(1H-pyrrole-2-carbonyl)-4,5,6,7-tetrahydro-1H-pyrazolo[4,3-c]pyridine-3-carboxamide]
12 | 5480 | 7370 | > 10000 | C=CC(=O)NC1CC(NC(=O)c2nn(Cc3ccc(F)cc3)c3c2CN(C(=O)c2ccc[nH]2)CC3C)C1 (stereo not shown) [ISO-2-20, N-(3-acrylamidocyclobutyl)-1-(4-fluorobenzyl)-7-methyl-5-(1H-pyrrole-2-carbonyl)-4,5,6,7-tetrahydro-1H-pyrazolo[4,3-c]pyridine-3-carboxamide]
13 | 0.6 | 0.8 | 5740 | C=CC(=O)Nc1ccc(NC(=O)c2nn(Cc3ccc(F)cc3)c3c2CN(C(=O)c2ccc[nH]2)CC3C)cc1 (stereo not shown) [ISO-2-25, N-(4-acrylamidophenyl)-1-(4-fluorobenzyl)-7-methyl-5-(1H-pyrrole-2-carbonyl)-4,5,6,7-tetrahydro-1H-pyrazolo[4,3-c]pyridine-3-carboxamide]
14 | 10 | 21 | 2140 | C=CC(=O)Nc1ccc(NC(=O)c2nn(Cc3ccc(F)cc3)c3c2CN(C(=O)c2ccc[nH]2)C[C@H]3C)cc1 [ISO-2-25-R]
15 | 1360 | 7720 | – | C=CC(=O)Nc1ccc(NC(=O)c2nn(Cc3ccc(F)cc3)c3c2CN(C(=O)c2ccc[nH]2)C[C@@H]3C)cc1 [ISO-2-25-S]
16 | > 10000 | > 10000 | > 10000 | C=CC(=O)N1CCC(NC(=O)c2nn(Cc3ccc(F)cc3)c3c2CN(C(=O)c2ccc[nH]2)CC3C)CC1 (stereo not shown) [ISO-2-26, N-(1-acryloylpiperidin-4-yl)-1-(4-fluorobenzyl)-7-methyl-5-(1H-pyrrole-2-carbonyl)-4,5,6,7-tetrahydro-1H-pyrazolo[4,3-c]pyridine-3-carboxamide]
17 | 14 | 61 | – | C=CC(=O)Nc1cc(NC(=O)c2nn(Cc3ccc(F)cc3)c3c2CN(C(=O)c2ccc[nH]2)CC3C)ccc1Cl (stereo not shown) [ISO-2-29, N-(3-acrylamido-4-chlorophenyl)-1-(4-fluorobenzyl)-7-methyl-5-(1H-pyrrole-2-carbonyl)-4,5,6,7-tetrahydro-1H-pyrazolo [4,3-c]pyridine-3-carboxamide]
18 | 1 | 8 | – | C=CC(=O)Nc1cc(NC(=O)c2nn(Cc3ccc(F)cc3)c3c2CN(C(=O)c2ccc[nH]2)CC3C)ccc1OC (stereo not shown) [ISO-2-30, N-(3-acrylamido-4-methoxyphenyl)-1-(4-fluorobenzyl)-7-methyl-5-(1H-pyrrole-2-carbonyl)-4,5,6,7-tetrahydro-1H-pyrazolo [4,3-c]pyridine-3-carboxamide]
19 | 839 | 1180 | – | C=CC(=O)Nc1cc(NC(=O)c2nn(Cc3ccc(F)cc3)c3c2CN(C(=O)c2ccc[nH]2)C[C@@H]3C)ccc1OC [ISO-2-30-S]
20 | 5 | 27 | – | C=CC(=O)N1CCc2ccc(NC(=O)c3nn(Cc4ccc(F)cc4)c4c3CN(C(=O)c3ccc[nH]3)CC4C)cc21 (stereo not shown) [ISO-2-31, N-(1-acryloylindolin-6-yl)-1-(4-fluorobenzyl)-7-methyl-5-(1H-pyrrole-2-carbonyl)-4,5,6,7-tetrahydro-1H-pyrazolo[4,3-c]pyridine-3-carboxamide]
21 | 3150 | 7500 | – | C=CC(=O)Nc1cccc(CNC(=O)c2nn(Cc3ccc(F)cc3)c3c2CN(C(=O)c2ccc[nH]2)CC3C)c1 (stereo not shown) [ISO-2-32, N-(3-acrylamidobenzyl)-1-(4-fluorobenzyl)-7-methyl-5-(1H-pyrrole-2-carbonyl)-4,5,6,7-tetrahydro-1H-pyrazolo[4,3-c]pyridine-3-carboxamide]
22 | 0.5 | 8 | – | Cc1cccc(NC(=O)c2nn(Cc3ccc(F)c(NC(=O)/C=C/CCl)c3)c3c2CN(C(=O)c2ccc[nH]2)CC3C)c1 (stereo not shown) [ISO-2-36, (E)-1-(3-(4-chlorobut-2-enamido)-4-fluorobenzyl)-7-methyl-5-(1H-pyrrole-2-carbonyl)-N-(m-tolyl)-4,5,6,7-tetrahydro-1H-pyrazolo[4,3-c]pyridine-3-carboxamide]
23 | 0.5 | 4 | – | C=CC(=O)Nc1ccc2c(Cn3nc(C(=O)Nc4cccc(C)c4)c4c3C(C)CN(C(=O)c3ccc[nH]3)C4)cccc2c1 (stereo not shown) [ISO-2-38, 1-((6-acrylamidonaphthalen-1-yl)methyl)-7-methyl-5-(1H-pyrrole-2-carbonyl)-N-(m-tolyl)-4,5,6,7-tetrahydro-1H-pyrazolo[4,3-c]pyridine-3-carboxamide]
